Source: US7026281B1, “Antagonistic analogs of GH-RH inhibiting IGF-I and -II” (The Administrators of the Tulane Educational Fund, priority 1998, dated 2006)
Square brackets hold non-standard residues; d marks the D form. Peptide text beside a SMILES is read from it. * marks the point of attachment. Acetyl(1-naphthyl) = O=C(Cc1cccc2ccccc12)*; Phe(4-Cl) = N[C@@H](Cc1ccc(Cl)cc1)C(=O)O; hArg = N=C(N)NCCCC[C@H](N)C(=O)O; Nle = CCCC[C@H](N)C(=O)O; Abu = CC[C@H](N)C(=O)O; PhAc = O=C(Cc1ccccc1)*

Assays:
[1] = tested on: hGH-RH(1–29)NH2 induced GH release; assay: Inhibition of GH release in superfused rat pituitary system; format: cell-based; settings: antagonist 30 nM; for Inhibition of GH release (%) 30 min: 1 nM hGH-RH(1–29)NH2 30 min later; for Inhibition of GH release (%) 60 min: 1 nM hGH-RH(1–29)NH2 60 min later; for Inhibition of GH release (%) 90 min: 1 nM hGH-RH(1–29)NH2 90 min later; for Inhibition of GH release (%) 120 min: 1 nM hGH-RH(1–29)NH2 120 min later; for Inhibition of GH release (%) 0 min: 1 nM hGH-RH(1–29)NH2 at 0 min
Procedure: Superfused Rat Pituitary System.
The analogs were tested in vitro in a test described earlier (S. Vigh and A. V. Schally, Peptides 5:241–347, 1984) with modification (Z. Rekasi and A. V. Schally, P.N.A.S. 90:2146–2149, 1993).
Briefly, the cells are preincubated with peptides for 9 minutes (3 mL) at various concentrations. Immediately after the incubation, 1 nM hGH-RH(1–29)NH2 is administered for 3 minutes (1 mL) [0 minute response]. To check the duration of the antagonistic effect of the analogue, 1 nM hGH-RH(1–29)NH2 is applied 30, 60, 90, and 120 minutes later for 3 minutes [30, 60, 90, 120 min responses]. Net integral values of the GH responses are evaluated. GH responses are compared to and expressed as percent of the original GH response induced by 1 nM GH-RH(1–29)NH2. The effect of the new antagonists are compared to that of [Ac-Tyr^1,D-Arg^2]hGH-RH(1–29)NH2, the “Standard antagonist”.
Growth Hormone Radio-immunoassay.
Rat GH levels in aliquots of undiluted and diluted superfusion samples were measured by double-antibody radioimmunoassay using materials supplied by the National Hormone and Pituitary Program, Baltimore, Md. The results of RIA were analyzed with a computer program developed in our institute (V. Csernus and A. V. Schally, in Neuroendocrine Research Methods, Harwood Academic (Greenstein, B. D. ed., London, pp. 71–109, 1991), hereby incorporated by reference. Inter-assay variation was less than 15% and intra-assay variation was less than 10%.

[2] = target: T1, rat pituitary GH-RH receptors (Rattus norvegicus, UniProt Q02644); assay: GH-RH radioreceptor binding assay, rat anterior pituitary membrane homogenates; settings: for Ki: competition with [His1,125I-Tyr10,Nle27]hGH-RH(1–32)NH2; for R.A. (relative affinity compared to Standard antagonist): ratio of Ki values
T1 construct: from tissue; host or cells: anterior pituitary of male Sprague-Dawley rats, crude membrane homogenates
T1 sequence (Q02644 23-464): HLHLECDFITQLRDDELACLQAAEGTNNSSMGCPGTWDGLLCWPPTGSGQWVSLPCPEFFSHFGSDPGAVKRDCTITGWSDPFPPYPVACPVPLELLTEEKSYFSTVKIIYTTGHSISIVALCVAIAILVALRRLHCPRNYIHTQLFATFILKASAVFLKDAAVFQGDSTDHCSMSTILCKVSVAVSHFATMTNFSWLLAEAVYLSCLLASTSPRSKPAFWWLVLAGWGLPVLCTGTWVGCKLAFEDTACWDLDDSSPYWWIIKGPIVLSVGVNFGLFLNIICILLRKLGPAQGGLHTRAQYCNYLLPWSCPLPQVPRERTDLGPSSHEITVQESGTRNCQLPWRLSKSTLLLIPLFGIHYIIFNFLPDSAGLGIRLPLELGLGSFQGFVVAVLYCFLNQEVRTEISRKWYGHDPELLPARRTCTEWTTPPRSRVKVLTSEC
Procedure: GH-RH Binding Assay. A sensitive radioreceptor binding assay was developed to determine the binding characteristics of the antagonists of GH-RH (G. Halmos, A. V. Schally et al., Receptor 3, 87–97, 1993), hereby incorporated by reference. The assay is based on binding of labelled [His^1,Nle^27]hGH-RH(1–32)NH2 to rat anterior pituitary membrane homogenates. Iodinated derivatives of [His^1,Nle^27]hGH-RH(1–32)NH2 are prepared by the chloramine-T method (F. C. Greenwood et al., Biochemistry 89:114–123, 1963), hereby incorporated by reference. Pituitaries from male Sprague-Dawley rats (250–300 g) are used to prepare crude membranes. For saturation binding analyses, membrane homogenates are incubated with at least 6 concentrations of [His^1,^125I-Tyr^10,Nle^27]hGH-RH(1–32) NH2, ranging from 0.005 to 0.35 nM in the presence or absence of excess unlabelled peptide (1 μM).
The pellet is counted for radioactivity in a γ-counter. The affinities of the antagonist peptides tested to rat pituitary GH-RH receptors are determined in competitive binding experiments. The final binding affinities are estimated by Ki (dissociation constant of the inhibitor-receptor complex) and are determined by the Ligand PC and McPherson computer programs of Munson and Rodbard (P. J. Munson and D. Rodbard, Anal. Biochem. 107. 220–239, 1980). Relative affinities compared to [Ac-Tyr^1,D-Arg^2]hGH-RH(1–29)NH2, the Standard antagonist, are calculated as the […].

[3] = tested on: GH release stimulated by hGH-RH(1–29)NH2; assay: In vivo inhibition of serum GH response in rats; design: species or system rat
Procedure: GH-RH antagonistic effect of the analogs was tested on young male Sprague-Dawley rats (200–250 g). In each experiment, 5 groups of 7 animals each were used. The compounds (80 μg/kg) and GH-RH(1–29)NH2 (3 μg/kg) were dissolved in 5.5% mannitol and given intravenously to the jugular vein of the rats under Nembutal anesthesia. The time elapsed between the administrations of the antagonist and GH-RH varied between groups, according to the following schedule. The first group of animals received GH-RH injection 5 min after the administration of the antagonist; for the second, third and fourth group of animals, the time interval elapsed between the injection of the antagonist and that of GH-RH was 15, 30, and 60 min, respectively. The control group was first injected with the solvent alone instead of the antagonist, followed by a GH-RH injection 5 min later.
0.4 mL blood samples were taken for GH RIA before the administration of the antagonist (“blood0”), and 5 min after the injection of GH-RH (“blood1”). The GH response in each group was calculated as rGH=(GHblood1/GHblood0), mean±S.E.M. of the individual differences. Relative inhibition of GH response (%) in each group treated was calculated as […].

Row | Compound | Inhibition of GH release (%) 30 min [1] | Inhibition of GH release (%) 60 min [1] | Inhibition of GH release (%) 90 min [1] | Inhibition of GH release (%) 120 min [1] | Inhibition of GH release (%) 0 min [1] | Ki [2] | R.A. (relative affinity compared to Standard antagonist) [2] | Inhibition of the GH release stimulated by hGH-RH(1–29)NH2 (in words) ([3]; 80 μg/kg i.v., rats) | Relative inhibition % of GH response ([3]; antagonist 80 μg/kg i.v. 5 min before GH-RH) | Relative inhibition % of GH response ([3]; antagonist 80 μg/kg i.v. 15 min before GH-RH) | GH response mean ± S.E.M. ([3]; antagonist 80 μg/kg i.v. 15 min before GH-RH 3 μg/kg) | Relative inhibition % of GH response ([3]; antagonist 80 μg/kg i.v. 30 min before GH-RH) | GH response mean ± S.E.M. ([3]; antagonist 80 μg/kg i.v. 30 min before GH-RH 3 μg/kg) | Relative inhibition % of GH response ([3]; antagonist 80 μg/kg i.v. 60 min before GH-RH) | GH response mean ± S.E.M. ([3]; antagonist 80 μg/kg i.v. 60 min before GH-RH 3 μg/kg) | GH response mean ± S.E.M. ([3]; rGH=GHblood1/GHblood0, antagonist 80 μg/kg i.v. 5 min before GH-RH 3 μg/kg)
1 | CCCC[C@H](NC(=O)[C@@H](NC(=O)[C@H](CC(=O)O)NC(=O)[C@H](CCC(N)=O)NC(=O)[C@H](CC(C)C)NC(=O)[C@H](CC(C)C)NC(=O)[C@H](CCCCN)NC(=O)[C@H](CCCNC(=N)N)NC(=O)[C@H](C)NC(=O)[C@H](CO)NC(=O)[C@H](CC(C)C)NC(=O)[C@H](CCC(N)=O)NC(=O)[C@H](CC)NC(=O)[C@H](CC(C)C)NC(=O)[C@@H](NC(=O)[C@H](CCCCN)NC(=O)[C@H](CCCNC(=N)N)NC(=O)[C@H](Cc1ccc(O)cc1)NC(=O)[C@H](CCCNC(=N)N)NC(=O)[C@H](CC(N)=O)NC(=O)[C@@H](NC(=O)[C@H](Cc1ccc(Cl)cc1)NC(=O)[C@@H](NC(=O)[C@H](C)NC(=O)[C@H](CC(=O)O)NC(=O)[C@@H](CCCNC(=N)N)NC(=O)[C@H](Cc1ccc(O)cc1)NC(=O)Cc1cccc2ccccc12)[C@@H](C)CC)[C@@H](C)O)C(C)C)[C@@H](C)CC)C(=O)N[C@H](CCCNC(=N)N)C(=O)N[C@@H](CCCCNC(=N)N)C(N)=O [Peptide 5, [Nac^0, D-Arg^2, Phe(pCl)^6, Arg^9, Abu^15, Nle^27, D-Arg^28, Har^29]hGH-RH(1–29)NH2] ({Acetyl(1-naphthyl)}-Y[dR]DAI[Phe(4-Cl)]TNRYRKVL[Abu]QLSARKLLQDI[Nle][dR][hArg]-NH2) | 77% | 59% | 58% | 50% | 79% | 0.036 nM | 82 | – | – | – | – | – | – | – | – | –
2 | CCCC[C@H](NC(=O)[C@@H](NC(=O)[C@H](CC(=O)O)NC(=O)[C@H](CCC(N)=O)NC(=O)[C@H](CC(C)C)NC(=O)[C@H](CC(C)C)NC(=O)[C@H](CCCCN)NC(=O)[C@H](CCCNC(=N)N)NC(=O)[C@H](C)NC(=O)[C@H](CO)NC(=O)[C@H](CC(C)C)NC(=O)[C@H](CCCNC(=N)N)NC(=O)[C@H](CC)NC(=O)[C@H](CC(C)C)NC(=O)[C@@H](NC(=O)[C@H](CCCCN)NC(=O)[C@H](CCCNC(=N)N)NC(=O)[C@H](Cc1ccc(O)cc1)NC(=O)[C@H](CO)NC(=O)[C@H](CC(N)=O)NC(=O)[C@@H](NC(=O)[C@H](Cc1ccc(Cl)cc1)NC(=O)[C@@H](NC(=O)[C@H](C)NC(=O)[C@H](CC(=O)O)NC(=O)[C@@H](CCCNC(=N)N)NC(=O)[C@H](Cc1ccc(O)cc1)NC(=O)Cc1ccccc1)[C@@H](C)CC)[C@@H](C)O)C(C)C)[C@@H](C)CC)C(=O)N[C@@H](CO)C(=O)N[C@H](CCCNC(=N)N)C(N)=O [Peptide 10, [PhAc^0, D-Arg^2, Phe(pCl)^6, Abu^15, Arg^16, Nle^27, D-Arg^29]hGH-RH(1–29)NH2] (PhAc-Y[dR]DAI[Phe(4-Cl)]TNSYRKVL[Abu]RLSARKLLQDI[Nle]S[dR]-NH2) | 69% | 46% | 24% | 22% | 75% | 0.107 nM | 27 | – | – | – | – | – | – | – | – | –
3 | [Nac^0, His^1, D-Arg^2, Phe(pCl)^6, Arg^9, Abu^15, Nle^27, D-Arg^28, Har^29]hGH-RH(1–29)NH2 [Peptide 8] | 100% | 98% | 97% | 90% | 100% | – | – | strong and long-lasting inhibition | 74% | 46% | 3.6 ± 0.4 | 8% | 5.5 ± 0.6 | 1% | 5.8 ± 0.7 | 2.3 ± 0.3
4 | [PhAc^0, D-Arg^2, Phe(pCl)^6, Arg^9, Tyr(Me)^10, Abu^15, Nle^27, D-Arg^28, Har^29]hGH-RH(1–29)NH2 [Peptide 6] | 93% | 97% | 95% | 90% | 93% | – | – | – | – | – | – | – | – | – | – | –
5 | [PhAc^0, D-Arg^2, Phe(pCl)^6, Tyr(Me)^10, Abu^15, D-Arg^27, Arg^28, D-Arg^29]hGH-RH(1–29)NH2 [Peptide 19] | 47% | 59% | 23% | 39% | 58% | – | – | – | – | – | – | – | – | – | – | –
6 | [PhAc^0, His^1, D-Arg^2, Phe(pCl)^6, Arg^9, Abu^15, Nle^27, D-Arg^28, Har^29]hGH-RH(1–29)NH2 [Peptide 7] | 92% | 82% | 77% | 65% | 97% | – | – | – | – | – | – | – | – | – | – | –
